From patent publication EP0703239A1, “Aminomethylphosphonic and aminomethylphosphinic acids derivatives and their use in the treatment of degenerative articular diseases” (priority 1994, dated 1996)
Structures can show the parent of a compound that is named as a salt. Where two headings read alike, the source gives them in different places.

What was measured:
TNF-alpha = test: LPS-stimulated interleukin release from human mononuclear cells, ELISA (TNF-alpha); type: cell-based; conditions: 10 µmol/l, 20-22 h, read-out: % Hemmung der Interleukin-Freisetzung
Method: (§1) 5. Freisetzung von Interleukinen (insbesondere IL-1β) aus humanen mononuklearen Zellen
(§2) Die erfindungsgemäßen Verbindungen haben eine starke Hemmwirkung auf die Freisetzung von Interleukinen aus Humanzellen. Dies ist von großer pharmakologischer Bedeutung weil Interleukine die unerwünschte Degradation der Knorpelmatrix auslösen können.
(§3) 10 ml Humanblut, stabilisiert mit 1 ml 3,8 %iger Natriumcitrat-Lösung, werden mit 10 ml PM16 (Serva, Heidelberg) verdünnt und mit 15 ml Lymphoprep (Dr. Molter GmbH, Heidelberg) unterschichtet. Die Proben werden 40 Minuten bei 400 xg (1600 rpm Minifuge 2, Heraeus, Osterode) zentrifugiert (Raumtemperatur). Die mononuklearen Zellen sind als weißer Ring an der Grenze Lymphoprep/Plasma sichtbar. Dieser Ring wird mit einer Spritze vorsichtig entnommen, mit dem gleichen Volumen PM16 verdünnt und 10 Minuten bei 400 xg zentrifugiert. Der Niederschlag wird mit ∼ 10 ml RPMI 1640 (+ 300 mg/l L-Glutamin, Gibco, Eggenstein) gewaschen. Nach Resuspendieren der Zellen in ∼ 1 ml RPMI 1640 (+ 300 mg/l L-Glutamin, + 25 mM HEPES, + 100 µg/ml Streptomycin, + 100 µg/ml Penicillin) wird die Zelldichte mit einem Coulter Counter JT (Coulter Diagnostics) bestimmt und auf 5 * 10⁶/ml eingestellt. Die Zellen bestehen typischerweise aus 90 % Lymphozyten und 10 % Monozyten.
(§4) 230 µl mononukleare Zellen werden mit 10 µl Testsubstanz (10 µM in DMSO/Wasser 1/10) und 10 µl Lipopolysaccharide (500 µg gelöst in 1 ml Dimethylsulfoxid (DMSO) und vor Testbeginn 1/10 mit Wasser verdünnt, von Salmonella abortus equi, Sigma, Deisenhofen) 20-22 Stunden bei 37°C; 5 % CO₂ inkubiert. Die Proben werden in einem Eisbad auf 0°C abgekühlt und in einer Sigma-Zentrifuge zentrifugiert (2 Minuten; 2000 rpm). Aliquote des Überstandes werden mit einem kommerziell erhältlichen ELISA (Biermann, Bad Nauheim) bestimmt.

Rattenlebermikrosomen = test: Inhibition of microsomal lipid peroxidation (malondialdehyde/thiobarbituric acid); type: biochemical, Ratte; conditions: rat liver microsomes, FeSO₄ start, 10 min 37°C; read-out: IC50 Mikrosomale Lipidperoxidation
Method: 4. Hemmung der Mikrosomalen Lipidperoxidation […]
Alle Schritte werden bei 0°C durchgeführt. Die Leber einer Ratte wird, um alles Hämoglobin zu entfernen, mit 0,9 % NaCl-Lösung gründlich gespült. Die grob zerkleinerte Leber wird dann in 10 mM Tris/HCl pH 7,4; 250 mM Saccharose (10 ml Puffer/g Leber) gepottert. Zunächst wird 5 Minuten bei 600xg zentrifugiert. Der Überstand wird dann 10 min bei 12000xg zentrifugiert und wird mit festem CaCl₂ (117,6 mg/100 ml) auf eine Konzentration von 8 mM eingestellt. Durch Zentrifugieren bei 25000 xg (15 min) wird ein Mikrosomenniederschlag gewonnen. Dieser Niederschlag wird im gleichen Volumen Puffer (10 mM Tris/HCl pH 7,4; 150 mM KCl) rehomogenisiert und erneut 15 min bei 25000 xg zentrifugiert.
Ein Testansatz besteht aus 20 µl Mikrosomen (100 mg/ml), vgl. oben, gelöst in Puffer (250 mM Tris/HCl pH 6,6, 750 mM KCl), 10 µl 50 mM MgCl₂, 10 µl 200 mM Isocitronensäure, 10 µl 4mM NADP (3,028 mg/ml Wasser), 10 µl 25 mM Niacinamid, 10 µl Isocitratdehydrogenase (1:100 verdünnt) und 20 µl Wasser oder Testsubstanz. Gestartet wird die Reaktion mit 10 µl 0,25 mM FeSO₄. Die Inkubation dauert 10 Minuten und erfolgt bei 37°C. Gestoppt wird mit 500 µl eiskalter 20 %iger Trichloressigsäure. Entstandenes Malondialdehyd wird durch Zugabe von 500 µl 0,67 %iger Thiobarbitursäure und 30 Minuten Inkubation bei 90°C in eine pinkfarbene Verbindung überführt, die bei 532 nm gemessen wird. Die Extinktion im Kontrollansatz ohne Prüfpräparat wird auf 0 % Hemmung gesetzt, während das völlige Verschwinden des Signals 100 % Hemmung bedeutet.

Chondrozyten [1] = test: IL-1-induced chondrocytic chondrolysis in chondrocyte agarose culture, 35S-sulfate incorporation; conditions: agarose cell culture with 5 u/ml human rec. IL-1 alpha; factor relative to IL-1 treated control
IL-1alpha = test: LPS-stimulated interleukin release from human mononuclear cells, ELISA (IL-1alpha); type: cell-based; conditions: 10 µmol/l, 20-22 h, read-out: % Hemmung der Interleukin-Freisetzung
Method: as §1, §2, §3, §4

IL-1beta = test: LPS-stimulated interleukin release from human mononuclear cells, ELISA (IL-1beta); type: cell-based; conditions: 10 µmol/l, 20-22 h, read-out: % Hemmung der Interleukin-Freisetzung
Method: as §1, §2, §3, §4

[2] = system: Matrix Metalloproteasen (MMP); test: Inhibition of matrix metalloproteases from supernatant of PMA-induced synoviocytes, fluorogenic substrate; type: biochemical, Kaninchen
Excerpt: 3. Inhibierung von Matrix Metalloproteasen (MMP)
Die erfindungsgemäßen Verbindungen zeigten deutliche inhibitorische Wirkungen auf proteolytische Enzyme, die sogenannten Matrix Metalloproteasen. Dies ist von großer Bedeutung, weil diese dem Fachmann an sich bekannten Enzyme am proteolytischen Abbau der intakten Knorpelmatrix entscheidend beteiligt sind.
Kaninchen Synoviocyten (HIG-82; ATCC, Rockville, Maryland, USA) werden in Nährmedium HAM'S F12 (Sigma, Deisenhofen, Deutschland, Katalog Nr. N-6760) mit 10 % fötalem Rinder Serum (Sigma, Deisenhofen, Deutschland, Katalog Nr. F-2442), zusammen mit Penicillin 100 U/ml sowie Streptomycin 100 µg/ml, kultiviert. Nach konfluentem Zellwachstum wird die MMP Expression in serumfreiem HAM'S F12 durch Zugabe von 0,3 µmol/l Phorbol-12-Myristat-13-Acetat induziert. Nach 20 h Inkubationszeit bei 37°C wird der Überstand abgenommen.
Der Überstand wird mit Trypsin (5 µg/ml) aktiviert. Nach 15 Minuten (min) bei 37°C wird die Aktivierung durch Zugabe von 1 mmol/l Phenylmethylsulfonylfluorid (PMSF) beendet und für weitere 10 min nachinkubiert. Das Gesamtvolumen des Ansatzes beträgt 210 µl.
Messung der MMP Aktivität (Lit.: C.G. Knight et al.; FEBS Lett. 296, 263 (1992)):
20 µl des obengenannten Überstandes werden 1:10 verdünnt, und mit 240 µl Puffer (0,1 Tris/HCl pH 7,5; 0,1 M NaCl; 0,01 M CaCl₂; 0,05 % Brij) gemischt. Die Prüfsubstanz wird in der angegebenen Konzentration (s. Tabelle) zugegeben. Nach einer Inkubationszeit von 15 min wird die Reaktion durch Zugabe von 20 µmol/l Fluoreszenz-Substanz ((7-Methoxycoumarin-4-yl)acetyl-pro-Leu-Gly-Leu-[3-(2',4'-dinitrophenyl)-L-2,3-diaminopropionyl]-Ala-Arg-NH₂; Bachem, Heidelberg, Deutschland, Kat. Nr.: M-1895) gestartet. Die Reaktion wird nach 30 min durch Zugabe von 10 mmol/l EDTA beendet. Das Gesamtvolumen des Ansatzes beträgt 320 µl. Als Meßparameter dienen die Fluoreszenzintensitäten bei λex: 328 nm und […]. Um die mögliche Eigenfluoreszens der Prüfsubstanzen zu berücksichtigen, werden die Fluoreszenzintensitäten von Parallel-Messungen ohne Substrat von den Messwerten mit Substrat abgezogen. Alle Operationen erfolgen bei 20°C. Im Kontrollexperiment ohne Hemmstoff wird die Fluoreszenz entsprechen 0 % Hemmung gesetzt, während völlige Auslöschung der Fluoreszenz 100 % Hemmung bedeutet.

Chondrozyten [3] = test: Stimulation of cartilage matrix (proteoglycan) synthesis in chondrocyte agarose culture, 35S-sulfate incorporation; type: cell-based, Rinder; conditions: for fold induction at 10 µM: Chondrocyte, read-out: Stimulationsfaktor der Proteoglykansynthese
Excerpt: 1. Wirksamkeit in der Synthese-Stimulierung von Knorpel-Matrix, Prüfung in der Chondrozyten-Kultur
Zellen: Den Fußgelenken frisch geschlachteter Rinder werden der hyaline Knorpel entnommen, mit Pronase (Boehringer Mannheim) und Collagenase (Sigma), die native Matrix enzymatisch abgebaut, und die Chondrozyten in 1 %iger "low melting Agarose" in 24er Multiwell-Schalen in einer Zelldichte von 4 x 10⁶ pro well ausplattiert.
Medium: Komplettes Medium enthält HAM's F12 (Biochrom KG, Berlin) und 10 % foetales Kälberserum (Boehringer Mannheim), die Testsubstanz wird in Medium gelöst, üblicherweise in einer Konzentration von 10⁻⁵ M zugegeben und bei jedem Mediumwechsel erneut zugefügt.
Versuchsdurchführung: Die Behandlung erfolgt vom dritten bis zehnten Tag der Primärkultur, am 9. […] Die dissoziative Extraktion der Proteoglykane aus der Agarose-Schicht wird mit 8M Guanidinium-Hydrochlorid und beigefügten Proteinase-Inhibitoren (Sigma) unter Schütteln bei 4° C über 24 h durchgeführt. Der Überstand wird nach Zentrifugation über eine PD 10 ®Sephadex G 25 Säule in freies und inkorporiertes Sulfat getrennt, dessen Aktivität nach Aliquotierung im β-Szintillationscounter gemessen wird.
Auswertung: Der Parameter für die Matrixproduktion der Chondrozyten ist die Menge synthetisierter Proteoglykane, gemessen als Sulfatinkorporation in cpm. Aus vier Wells pro Gruppe wird der Mittelwert errechnet. Dieser wird durch den Mittelwert der unbehandelten Kontrolle dividiert, und ergibt somit einen Stimulationsfaktor, der bei Stimulation der Matrixsynthese größer 1 ist, bei Hemmung derselben durch Substanzwirkung kleiner 1, und bei unveränderter Matrixsynthese gleich 1 ist.
Als Standard wird Diacerein eingesetzt, das unter dem Markennamen "Artodar" von der Firma Proter bzw. […] Tabelle II

[4] = agarose cell culture, test substance usually 10⁻⁵ M, mean sulfate incorporation divided by untreated control (>1 = stimulation)

Compound	IC50 (Rattenlebermikrosomen)	Stimulationsfaktor der Proteoglykansynthese (Chondrozyten [1])	inhibition at 10 µM (IL-1beta)	Hemmung der MMP ([2]; 30 µM)	other results
COP(=O)(OC)C(Nc1ccc2c(c1)OCO2)c1cc(C(C)(C)C)c(O)c(C(C)(C)C)c1 (stereo not shown) [Beispiel 60]	0.71 µM	1,4	–	–	inhibition at 10 µM (TNF-alpha): 24%
CCOP(=O)(OCC)C(c1cc(C(C)(C)C)c(O)c(C(C)(C)C)c1)N1CCN(c2ccccc2)CC1 (stereo not shown) [Beispiel 25]	2.45 µM	–	–	–	inhibition at 10 µM (TNF-alpha): 36%; inhibition at 10 µM (IL-1alpha): 60%
CCCCOP(=O)(OCCCC)C(NCc1ccc2c(c1)OCO2)c1cc(C(C)(C)C)c(O)c(C(C)(C)C)c1 (stereo not shown) [Beispiel 31]	2.18 µM	1,7	32%	–	–
CCCOP(=O)(OCCC)C(Nc1ccc2c(c1)OCO2)c1cc(C(C)(C)C)c(O)c(C(C)(C)C)c1 (stereo not shown) [Beispiel 62]	0.24 µM	1,2	46%	68%	Hemmung der MMP ([2]; 10 µM): 23%; Hemmung der MMP ([2]; 100 µM): 83%; fold induction at 10 µM (Chondrozyten [3]; [4]): 1.2
CC(C)(C)c1cc(C(Nc2ccc3c(c2)OCO3)[PH](=O)O)cc(C(C)(C)C)c1O (stereo not shown) [Beispiel 3]	0.79 µM	1,3	–	20%	Hemmung der MMP ([2]; 10 µM): 3%; Hemmung der MMP ([2]; 100 µM): 83%
CCOP(=O)(OCC)C(Nc1ccc(NC(c2cc(C(C)(C)C)c(O)c(C(C)(C)C)c2)P(=O)(OCC)OCC)cc1)c1cc(C(C)(C)C)c(O)c(C(C)(C)C)c1 (stereo not shown) [Beispiel 74]	1.25 µM	3,8	–	47%	Hemmung der MMP ([2]; 10 µM): 20%; Hemmung der MMP ([2]; 50 µM): 74%
1-(4-Chloranilino)-1-(3,5-di-tert.butyl-4-hydroxy-phenyl)-methanphosphonsäurediethylester [Beispiel 1]	2.43 µM	1,5	–	–	Stimulationsfaktor der Proteoglykansynthese (Chondrozyten [3]; agarose cell culture, test substance usually 10⁻⁵ M, mean sulfate incorporation divided by untreated control (>1 = stimulation), 10 µM): 1,4
CCCOP(=O)(OCCC)C(NCc1ccc2c(c1)OCO2)c1cc(C(C)(C)C)c(O)c(C(C)(C)C)c1 (stereo not shown) [Beispiel 2, 1-(3,4-Methylendioxybenzylamino)-1-(3,5-di-tert.butyl-4-hydroxy-phenyl)methanphosphonsäure-di-n-propylester-hydrochlorid]	2.3 µM	4,3	–	–	fold induction at 10 µM (Chondrozyten [3]; [4]): 1.2
CCOP(C)(=O)C(Nc1ccc2c(c1)OCO2)c1cc(C(C)(C)C)c(O)c(C(C)(C)C)c1 (stereo not shown) [Beispiel 59]	–	–	–	43%	Hemmung der MMP ([2]; 10 µM): 19%
CCOP(=O)(OCC)C(Nc1ccc2c(c1)OCO2)c1cc(C(C)(C)C)c(O)c(C(C)(C)C)c1 (stereo not shown) [Beispiel 61]	–	1,3	24%	–	fold induction at 10 µM (Chondrozyten [3]): 2.9
CCOP(=O)(OCC)C(c1cc(C(C)(C)C)c(O)c(C(C)(C)C)c1)N(C)c1ccccc1 (stereo not shown) [Beispiel 53]	2.03 µM	1,7	53%	11%	Hemmung der MMP ([2]; 100 µM): 25%
COP(=O)(OC)C(NC1CCCCC1)c1cc(C(C)(C)C)c(O)c(C(C)(C)C)c1 (stereo not shown) [Beispiel 7]	2.4 µM	–	–	–	inhibition at 10 µM (IL-1alpha): 21%
CCOP(=O)(OCC)C(Nc1ccc(C=CC(=O)OC)cc1)c1cc(C(C)(C)C)c(O)c(C(C)(C)C)c1 (stereo not shown) [Beispiel 67]	2.22 µM	1,9	26%	–	–
CCOP(=O)(OCC)C(Nc1ncccn1)c1cc(C(C)(C)C)c(O)c(C(C)(C)C)c1 (stereo not shown) [Beispiel 80]	2.9 µM	2,4	–	–	inhibition at 10 µM (TNF-alpha): 21%
CCOP(=O)(OCC)C(c1cc(C(C)(C)C)c(O)c(C(C)(C)C)c1)N1CCOCC1 (stereo not shown) [Beispiel 23]	2.45 µM	–	–	–	inhibition at 10 µM (TNF-alpha): 70%; inhibition at 10 µM (IL-1alpha): 75%
CCCCOP(=O)(OCCCC)C(Nc1ccc(Cl)cc1)c1cc(C(C)(C)C)c(O)c(C(C)(C)C)c1 (stereo not shown) [Beispiel 45]	6.15 µM	1,2	–	–	inhibition at 10 µM (IL-1alpha): 22%
CCCCOP(=O)(OCCCC)C(Nc1ccc2c(c1)OCO2)c1cc(C(C)(C)C)c(O)c(C(C)(C)C)c1 (stereo not shown) [Beispiel 63]	0.24 µM	1,5	31%	60%	Hemmung der MMP ([2]; 10 µM): 26%
